Test results taken from article PMC9033093, “Antiplasmodial Activity of Vachellia xanthophloea (Benth.) P.J.H. Hurter (African Fever Tree) and Its Constituents” (Pharmaceuticals, 2022).
“And” between values parts separate entries of the source, which are not always exact repeats. Identical values can stand only once. Like-named read-outs stand apart in the source and are kept apart here.

Experiments:
[1] = system: P. falciparum; conditions: cited from earlier work
[2] = system: Plasmodium falciparum 3D7 clone; test: In vitro antiplasmodial activity, parasite lactate dehydrogenase (pLDH) assay; conditions: for viability at 10 µg/mL: 3D7, read-out: Viability % ± SD at 10 μg/mL; for viability at 50 µg/mL: 3D7, read-out: Viability % ± SD at 50 μg/mL
Method: Malaria parasites (Plasmodium falciparum 3D7 clone) were maintained in an RPMI 1640 medium containing 2 mM L-glutamine and 25 mM Hepes (Lonza). The medium was further supplemented with 5% Albumax II, 20 mM glucose, 0.65 mM hypoxanthine, 60 µg/mL gentamycin, and 2–4% haematocrit human red blood cells. The parasites were cultured at 37 °C under an atmosphere of 5% CO2, 5% O2, and 90% N2 in a sealed T75 culture flask.
For the antiplasmodial activity, the extracts and isolated compounds were first tested at 50 µg/mL and 10 µg/mL in duplicate experiments. IC50 values determined from the dose-response curves were evaluated for the compounds only showing < 50% viability without cytotoxicity at 10 µg/mL. For the IC50 screening, a range of concentrations of the extracts and compounds starting from 100 µg/mL and extended by 3-fold serial dilution were tested in triplicate and standard deviations (SD) were derived where applicable. The parasite viability was determined by measuring the activity of parasite lactate dehydrogenase (pLDH) as described by Makler et al.. Serial dilutions of the extracts and compounds were added to the in vitro cultures of P. falciparum (3D7 clone) in 96-well plates (1% haematocrit, 2% parasitaemia) and incubated for 48 h. To 125 µL solutions containing a mixture of Malstat (0.18 M lactic acid, 0.13 mM 3-acetylpyridine adenine dinucleotide, 0.16% Triton X-100, and 44 mM Tris, pH 9) and NBT/PES (0.39 mM nitro blue tetrazolium and 0.05 mM phenazine ethosulfate), 20 µL of the incubated culture was then added in a fresh 96-well plate. […] The % parasite viability, as indicated by the pLDH activity in the treated wells compared with the untreated controls, was calculated from the absorbance values for each compound/extract. The parasitised RBCs in the absence of test compounds/drug were taken as the untreated control with 100% viability.

[3] = In vitro cytotoxicity, resazurin assay; assay type: cell-based, human; conditions: human, 24 h; for viability at 24 h, 10 µg/mL: HeLa cell viability at 10 µg/mL, read-out: Viability % ± SD at 10 μg/mL; for viability at 24 h, 50 µg/mL: HeLa cell viability at 50 µg/mL, read-out: Viability % ± SD at 50 μg/mL
Method: (§1) The cytotoxicity of the compounds/extracts against HeLa (human cervix adenocarcinoma) cells (Cellonex, South Africa) was evaluated by plating the cells at a density of 2 × 10^4 cells per well in a DMEM medium supplemented with 10% foetal bovine serum and penicillin/streptomycin/amphotericin B antibiotics in 96-well plates. After incubating for 24 h at 37 °C in a humidified 5% CO2 incubator, the test samples were added at a final concentration of 50 µg/mL or 10 µg/mL to the cells in triplicate wells (final volume per well was 200 µL) and further incubated or 24 h. Subsequently, a 20 µL resazurin stock solution (0.6 mM resazurin in phosphate-buffered saline) was added to each well and, after a 4 h incubation, the fluorescence (Exc560/Emm590) was measured on a Spectramax M3 plate reader. The percentage cell viability in the treated wells relative to the wells containing the untreated control cells was calculated from the fluorescence values after subtracting the background readings obtained from the empty wells. Emetine was used as the positive control.

[4] = system: HeLa (human cervix adenocarcinoma) cells; test: In vitro cytotoxicity, resazurin assay; assay type: cell-based; conditions: for IC50: Homo sapiens, HeLa, positive control
Method: as §1

In the case of `O=c1c(O)c(-c2cc(O)c(O)c(O)c2)oc2cc(O)cc(O)c12` [myricetin, reference compound], the “antiplasmodial activity of common dietary flavonoids (reported)” value (“antiplasmodial activity … (reported)” for short) [1] is listed as “moderate to weak antiplasmodial activity”.

With `O=C1c2c(O)cc(O)cc2O[C@H](c2ccc(O)c(O)c2)[C@H]1O` [Dihydroquercetin (6), dihydroquercetin] the IC50 ([2]; 3D7, 48 h) was 27.6 µg/mL and 90.7 µM.

For `Oc1cc(O)c2c(c1)O[C@H](c1cc(O)c(O)c(O)c1)[C@@H](O)C2` [gallocatechin (8), gallocatechin], the “activity against P. falciparum (previously reported)” value [1] is listed as “inactive”.

For `O=c1c(O)c(-c2ccc(O)c(O)c2)oc2cc(O)cc(O)c12` [quercetin], the “antiplasmodial activity … (reported)” value [1] is given as “moderate to weak antiplasmodial activity”.

With `COC(=O)c1cc(O)c(O)c(O)c1` [Methyl gallate (9), methyl gallate] the viability at 24 h, 10 µg/mL [3] was 68%, the viability at 24 h, 50 µg/mL [3] was 2 ± 0.2% and the “Viability % ± SD at 10 μg/mL” value ([4]; HeLa cell viability at 10 µg/mL, 24 h) was 68.6 ± 2.0%. For the same compound, the IC50 ([2]; 3D7, 48 h) was 1.2 µg/mL and 6.52 µM, the viability at 10 µg/mL [2] was 26.9 ± 0.7% and the viability at 50 µg/mL [2] was 17.7 ± 1.5%. For the same compound, the “antiplasmodial activity and selectivity (reported by other investigators)” value [1] was “good selective antiplasmodial activity” and the combination with quinine [1] was “act in synergy with quinine”.

`CCN(CC)CCCC(C)Nc1ccnc2cc(Cl)ccc12` (stereo not shown) [Chloroquine, reference compound] showed an IC50 ([2]; 3D7, 48 h) of 0.014 µM and an IC50 ([2]; 3D7, read-out: IC50 values ranged) of 0.01 to 0.05 µM.

For `O=c1c(O)c(-c2ccc(O)cc2)oc2cc(O)cc(O)c12` [Kaempferol (10), kaempferol], the IC50 ([2]; 3D7, 48 h) is listed as 25 µg/mL and 87.3 µM and the “antiplasmodial activity … (reported)” value [1] is listed as “moderate to weak antiplasmodial activity”.

In the case of pinoresinol [Pinoresinol (12)], the “activity against P. falciparum (previously reported)” value [1] is listed as “inactive”.

For `O=c1cc(-c2ccc(O)cc2)oc2cc(O)cc(O)c12` [apigenin], the “antiplasmodial activity … (reported)” value [1] is given as “moderate to weak antiplasmodial activity”.

`CC[C@H]1CN2CCc3cc(OC)c(OC)cc3[C@@H]2C[C@@H]1C[C@H]1NCCc2cc(OC)c(OC)cc21` [Emetine, reference compound] gave an IC50 ([4]; printed in the 10 µg/mL column) of 0.04 µM and an IC50 ([4]; printed in the 50 µg/mL column) of 0.033 µM.

In the case of `C[C@]1(O)CC[C@H]2[C@@H]3CCC4=CC(=O)CC[C@@H]4[C@H]3CC[C@@]21C` [lutenin, reference compound], the “antiplasmodial activity … (reported)” value [1] is given as “moderate to weak antiplasmodial activity”.

Work on `COc1c(-c2ccc(O)c(O)c2)oc2cc(O)cc(O)c2c1=O` [3-O-Methylquercetin (4), 3-O-methylquercetin] yielded a viability at 24 h, 10 µg/mL ([3]; HeLa cells) of 57.9 ± 5.2%, a viability at 24 h, 50 µg/mL ([3]; HeLa cells) of 4.5 ± 0.1% and a viability at 10 µg/mL [2] of 82.9 ± 3%. It also gave a viability at 50 µg/mL [2] of 21.9 ± 1.5%.
